Values joined by “and” are separate entries in the source; they are usually repeats but may differ in a detail not shown here. Equal entries are not always repeated.
System: C. acetobutylicum ATCC 824
Experiment: Sequential batch cultures of C. acetobutylicum ATCC 824 grown at 30° C. in YEPG (growth OD600, final pH, ceric ion reactive compounds)
Format: cell-based, Clostridium acetobutylicum
Conditions: for Final pH / Optical density at 600 nm / Optical density of ceric ion reactive compounds measured at 500 nm: 96 h culture
Procedure: Clostridium acetobutylicum ATCC 824 and C. beijerinckii NCIMB 8052 are available from several commercial microbial culture collections including the American Type Culture Collection (ATCC), Manassas, Va., USA. The strain grown at 30 C or 37 C in YE broth, which contained, per liter: 5.0 g yeast extract, 2.5 g casamino acids, 1.0 g L-asparagine, 0.5 g cysteine·HCl, 56 mg K2HPO4, 56 mg KH2PO4, 82 mg anhydrous MgSO4, 8 mg FeSO4.H2O, 6 mg MnSO4.H2O and 10 g glucose. Alternatively, strains were grown in YEPG broth, which was identical to YE expect that K2HPO4 and KH2PO4 were increased to 145 mg/L each and glucose was increased to 60 g/L. The pH of the media was adjusted to 7.2 using 45% KOH prior to sterilization by autoclaving. Media were solidified by addition of 1.5% Bacteriological Agar, Acumedia Manufacturers, Inc., Lansing, Mich. All cultures were grown in anaerobic conditions using the AnaeroPack System, Mitsubishi Gas Chemical Co., Inc., Japan, and GasPak EZ Gas Generating Sachets, Becton, Dickinson and Co., Sparks, Md. Spore stocks were kept at room temperature on agar-solidified media and were activated by suspending spores in 0.5 mL to 1.0 mL of medium followed by heating for 10 min at 80 C before inoculation into growth medium.
Growth of bacterial cultures was measured spectrophotometrically using optical density at 600 nm and pH of cell-free culture supernatants was measured using a hand-held Shindengen ISFET pH Meter KS501, Shendengen Electric Manufacturing Co., Ltd., Bannockburn, Ill.
Total alcohols in cell-free culture supernatants were measured using a modification of a colorimetric method based on ceric ammonium nitrate (Reid and Truelove, 1952). The ceric ion reagent was prepared by adding 1.3 mL of concentrated nitric acid to 40 mL of distilled water, then 10.96 g of ceric ammonium nitrate was dissolved in the dilute nitric acid solution and the solution was brought to a final volume of 50 mL. For the assay, […] of butanol standard or culture supernatant was mixed with […] distilled water in a disposable plastic cuvette followed by addition of […] of the ceric ion reagent. The sample was mixed by inverting the cuvette six times then exactly two minutes later the optical density at 500 nm wavelength was measured. The concentration of total alcohols was determined by comparison with a standard curve prepared by using butanol diluted in distilled water.
Spores of C. acetobutylicum ATCC 824 were germinated and grown overnight at 30 C under anaerobic conditions in YEPG medium. After about 24 h of growth, […] of the culture was transferred (transfer 1) to each of four flasks that contained 10 mL of YEPG and either had no treatment or were treated with peptide SEQ ID NO: 143 (see Table 8 and FIG. 1) at 1 nM, 10 nM or 50 nM. Thereafter, […] of each culture was transferred, at the same time, every 24-48 h to 10 mL of fresh YEPG that contained the same peptide treatment or no treatment. Each culture was stopped after 96 hours of incubation and optical density, pH and ceric ion reactive chemicals were measured. Sequential batch culturing was continued through 5 transfers at which point the untreated culture and those treated with 1 nM and 10 nM of peptide SEQ ID NO: 143 had stopped growing (Table 9). […] In addition, treatment with 1 nM of peptide SEQ ID NO: 143 appeared to stop growth at the first transfer, but growth was restored in the second and third transfers.

SYPGWSW [peptide SEQ ID NO: 143]
Extension of growth during sequential batch cultures (1 nM, 30 °C, untreated culture stopped earlier): growth through the third transfer
Final pH (1 nM, transfer 1, 30 °C): 6.0
Optical density at 600 nm (1 nM, transfer 1, 30 °C): 0.005
Optical density of ceric ion reactive compounds measured at 500 nm (1 nM, transfer 1, 30 °C): 0.048
Final pH (1 nM, transfer 2, 30 °C): 4.4
Optical density at 600 nm (1 nM, transfer 2, 30 °C): 2.274
Optical density of ceric ion reactive compounds measured at 500 nm (1 nM, transfer 2, 30 °C): 0.119
Final pH (1 nM, transfer 3, 30 °C): 4.4
Optical density at 600 nm (1 nM, transfer 3, 30 °C): 2.165
Optical density of ceric ion reactive compounds measured at 500 nm (1 nM, transfer 3, 30 °C): 0.167
Final pH (1 nM, transfer 4, 30 °C): 6.0
Optical density at 600 nm (1 nM, transfer 4, 30 °C): 0.044
Optical density of ceric ion reactive compounds measured at 500 nm (1 nM, transfer 4, 30 °C): 0.031
Final pH (1 nM, transfer 5, 30 °C): 6.0
Optical density at 600 nm (1 nM, transfer 5, 30 °C): 0.004
Optical density of ceric ion reactive compounds measured at 500 nm (1 nM, transfer 5, 30 °C): 0.040
Extension of growth during sequential batch cultures (10 nM, 30 °C): growth through the fourth transfer
Final pH (10 nM, transfer 1, 30 °C): 4.4
Optical density at 600 nm (10 nM, transfer 1, 30 °C): 2.001
Optical density of ceric ion reactive compounds measured at 500 nm (10 nM, transfer 1, 30 °C): 0.175
Final pH (10 nM, transfer 2, 30 °C): 4.4
Optical density at 600 nm (10 nM, transfer 2, 30 °C): 2.245
Optical density of ceric ion reactive compounds measured at 500 nm (10 nM, transfer 2, 30 °C): 0.184
Final pH (10 nM, transfer 3, 30 °C): 4.5
Optical density at 600 nm (10 nM, transfer 3, 30 °C): 2.379
Optical density of ceric ion reactive compounds measured at 500 nm (10 nM, transfer 3, 30 °C): 0.187
Final pH (10 nM, transfer 4, 30 °C): 4.5
Optical density at 600 nm (10 nM, transfer 4, 30 °C): 2.266
Optical density of ceric ion reactive compounds measured at 500 nm (10 nM, transfer 4, 30 °C): 0.192
Final pH (10 nM, transfer 5, 30 °C): 5.9 and 6.0
Optical density at 600 nm (10 nM, transfer 5, 30 °C): 0.028
Optical density of ceric ion reactive compounds measured at 500 nm (10 nM, transfer 5, 30 °C): 0.043
Extension of growth during sequential batch cultures (50 nM, 30 °C): growth through the fifth transfer
Final pH (50 nM, transfer 1, 30 °C): 4.4
Optical density at 600 nm (50 nM, transfer 1, 30 °C): 1.879
Optical density of ceric ion reactive compounds measured at 500 nm (50 nM, transfer 1, 30 °C): 0.159
Final pH (50 nM, transfer 2, 30 °C): 4.6
Optical density at 600 nm (50 nM, transfer 2, 30 °C): 2.089
Optical density of ceric ion reactive compounds measured at 500 nm (50 nM, transfer 2, 30 °C): 0.189
Final pH (50 nM, transfer 3, 30 °C): 4.5
Optical density at 600 nm (50 nM, transfer 3, 30 °C): 2.313
Optical density of ceric ion reactive compounds measured at 500 nm (50 nM, transfer 3, 30 °C): 0.183
Final pH (50 nM, transfer 4, 30 °C): 4.4
Optical density at 600 nm (50 nM, transfer 4, 30 °C): 2.187
Optical density of ceric ion reactive compounds measured at 500 nm (50 nM, transfer 4, 30 °C): 0.187
Final pH (50 nM, transfer 5, 30 °C): 4.3
Optical density at 600 nm (50 nM, transfer 5, 30 °C): 2.173
Optical density of ceric ion reactive compounds measured at 500 nm (50 nM, transfer 5, 30 °C): 0.174
Culture degeneration in terms of number of sequential transfers and production of total alcohols (30 °C): prevent culture degeneration
Number of additional sequential transfers versus a culture without added peptide (30 °C): at least four more times
Expected extension of time in continuous culture (extrapolated from sequential batch transfers, dilution rate of 0.05/hour): about five-fold
Expected time in continuous culture (extrapolated from sequential batch transfers, dilution rate of 0.05/hour, from about 140 hours without peptide): about 700 hours
